Reference: patent US11272709B2, “Amidine substituted benzoyl derivatives useful as herbicides” (Syngenta Participations AG, priority 2018, dated 2022)

Tests used:
Format in all cases: in vivo
Conditions in all cases: evaluated after 13 days
Setaria faberi (SETFA) [1] = assay: Post-emergence herbicidal glasshouse test, Setaria faberi (SETFA)
Description: (§1) Seeds of a variety of test species are sown in standard soil in pots (Lolium perenne (LOLPE), Amaranthus retoflexus (AMARE), Abutilon theophrasti (ABUTH), Setaria faberi (SETFA), Echinochloa crus-galli (ECHCG), Ipomoea hederacea (IPOHE)). After cultivation for one day (pre-emergence) or after 8 days cultivation (post-emergence) under controlled conditions in a glasshouse (at 24/16° C., day/night; 14 hours light; 65% humidity), the plants are sprayed with an aqueous spray solution derived from the formulation of the technical active ingredient in acetone/water (50:50) solution containing 0.5% Tween 20 (polyoxyethelyene sorbitan monolaurate, CAS RN 9005-64-5). Compounds are applied at 500 g/h unless otherwise indicated. The test plants are then grown in a glasshouse under controlled conditions in a glasshouse (at 24/16° C., day/night; 14 hours light; 65% humidity) and watered twice daily. After 13 days for pre and post-emergence, the test is evaluated for the percentage damage caused to the plant. The biological activities are shown in the following table on a five point scale (5=80-100%; 4=60-79%; 3=40-59%; 2=20-39%; 1=0-19%).

[2] = tested on: Abutilon theophrasti (ABUTH); assay: Pre-emergence herbicidal glasshouse test, Abutilon theophrasti (ABUTH)
Description: as §1

[3] = tested on: Echinochloa crus-galli (ECHCG); assay: Pre-emergence herbicidal glasshouse test, Echinochloa crus-galli (ECHCG)
Description: as §1

[4] = tested on: Ipomoea hederacea (IPOHE); assay: Pre-emergence herbicidal glasshouse test, Ipomoea hederacea (IPOHE)
Description: as §1

[5] = tested on: Echinochloa crus-galli (ECHCG); assay: Post-emergence herbicidal glasshouse test, Echinochloa crus-galli (ECHCG)
Description: as §1

[6] = tested on: Abutilon theophrasti (ABUTH); assay: Post-emergence herbicidal glasshouse test, Abutilon theophrasti (ABUTH)
Description: as §1

[7] = tested on: Amaranthus retoflexus (AMARE); assay: Pre-emergence herbicidal glasshouse test, Amaranthus retoflexus (AMARE)
Description: as §1

[8] = tested on: Ipomoea hederacea (IPOHE); assay: Post-emergence herbicidal glasshouse test, Ipomoea hederacea (IPOHE)
Description: as §1

Setaria faberi (SETFA) [9] = assay: Pre-emergence herbicidal glasshouse test, Setaria faberi (SETFA)
Description: as §1

[10] = tested on: Amaranthus retoflexus (AMARE); assay: Post-emergence herbicidal glasshouse test, Amaranthus retoflexus (AMARE)
Description: as §1

CN(C=Nc1c(S(C)(=O)=O)ccc(C(=O)Nc2nnnn2C)c1Cl)CC(F)(F)F [Compound 1.142]
POST Application SETFA, percentage damage (five point scale) (Setaria faberi (SETFA) [1]; applied at 250 g/ha): 5 (5=80-100%)
PRE Application ABUTH, percentage damage (five point scale) ([2]; applied at 250 g/ha): 5 (5=80-100%)
PRE Application ECHCG, percentage damage (five point scale) ([3]; applied at 250 g/ha): 5 (5=80-100%)
PRE Application IPOHE, percentage damage (five point scale) ([4]; applied at 250 g/ha): 4 (4=60-79%)
POST Application ECHCG, percentage damage (five point scale) ([5]; applied at 250 g/ha): 5 (5=80-100%)
POST Application ABUTH, percentage damage (five point scale) ([6]; applied at 250 g/ha): 5 (5=80-100%)
PRE Application AMARE, percentage damage (five point scale) ([7]; applied at 250 g/ha): 5 (5=80-100%)
POST Application IPOHE, percentage damage (five point scale) ([8]; applied at 250 g/ha): 5 (5=80-100%)
PRE Application SETFA, percentage damage (five point scale) (Setaria faberi (SETFA) [9]; applied at 250 g/ha): 5 (5=80-100%)
POST Application AMARE, percentage damage (five point scale) ([10]; applied at 250 g/ha): 5 (5=80-100%)

Cc1c(C(=O)Nc2nnnn2C)ccc(S(C)(=O)=O)c1N=CN(C)C(C)C [Compound 1.144]
POST Application SETFA, percentage damage (five point scale) (Setaria faberi (SETFA) [1]; 500 g/h): 5 (5=80-100%)
PRE Application ABUTH, percentage damage (five point scale) ([2]; 500 g/h): 5 (5=80-100%)
PRE Application ECHCG, percentage damage (five point scale) ([3]; 500 g/h): 5 (5=80-100%)
PRE Application IPOHE, percentage damage (five point scale) ([4]; 500 g/h): 5 (5=80-100%)
POST Application ECHCG, percentage damage (five point scale) ([5]; 500 g/h): 5 (5=80-100%)
POST Application ABUTH, percentage damage (five point scale) ([6]; 500 g/h): 5 (5=80-100%)
PRE Application AMARE, percentage damage (five point scale) ([7]; 500 g/h): 5 (5=80-100%)
POST Application IPOHE, percentage damage (five point scale) ([8]; 500 g/h): 5 (5=80-100%)
PRE Application SETFA, percentage damage (five point scale) (Setaria faberi (SETFA) [9]; 500 g/h): 5 (5=80-100%)
POST Application AMARE, percentage damage (five point scale) ([10]; 500 g/h): 5 (5=80-100%)

CN(C=Nc1c(S(C)(=O)=O)ccc(C(=O)Nc2nnnn2C)c1Cl)c1ccccc1 [Compound 1.145]
POST Application SETFA, percentage damage (five point scale) (Setaria faberi (SETFA) [1]; 500 g/h): 5 (5=80-100%)
PRE Application ABUTH, percentage damage (five point scale) ([2]; 500 g/h): 5 (5=80-100%)
PRE Application ECHCG, percentage damage (five point scale) ([3]; 500 g/h): 5 (5=80-100%)
PRE Application IPOHE, percentage damage (five point scale) ([4]; 500 g/h): 4 (4=60-79%)
POST Application ECHCG, percentage damage (five point scale) ([5]; 500 g/h): 5 (5=80-100%)
POST Application ABUTH, percentage damage (five point scale) ([6]; 500 g/h): 3 (3=40-59%)
PRE Application AMARE, percentage damage (five point scale) ([7]; 500 g/h): 5 (5=80-100%)
POST Application IPOHE, percentage damage (five point scale) ([8]; 500 g/h): 4 (4=60-79%)
PRE Application SETFA, percentage damage (five point scale) (Setaria faberi (SETFA) [9]; 500 g/h): 5 (5=80-100%)
POST Application AMARE, percentage damage (five point scale) ([10]; 500 g/h): 4 (4=60-79%)

CC(=Nc1c(C(F)(F)F)ccc(C(=O)Nc2nnnn2C)c1Cl)N(C)C [Compound 1.148]
POST Application SETFA, percentage damage (five point scale) (Setaria faberi (SETFA) [1]; 500 g/h): 5 (5=80-100%)
PRE Application ABUTH, percentage damage (five point scale) ([2]; 500 g/h): 5 (5=80-100%)
PRE Application ECHCG, percentage damage (five point scale) ([3]; 500 g/h): 5 (5=80-100%)
PRE Application IPOHE, percentage damage (five point scale) ([4]; 500 g/h): 5 (5=80-100%)
POST Application ECHCG, percentage damage (five point scale) ([5]; 500 g/h): 5 (5=80-100%)
POST Application ABUTH, percentage damage (five point scale) ([6]; 500 g/h): 4 (4=60-79%)
PRE Application AMARE, percentage damage (five point scale) ([7]; 500 g/h): 5 (5=80-100%)
POST Application IPOHE, percentage damage (five point scale) ([8]; 500 g/h): 4 (4=60-79%)
PRE Application SETFA, percentage damage (five point scale) (Setaria faberi (SETFA) [9]; 500 g/h): 5 (5=80-100%)
POST Application AMARE, percentage damage (five point scale) ([10]; 500 g/h): 5 (5=80-100%)

Cc1nnc(NC(=O)c2ccc(C(F)(F)F)c(N=CN(C)C)c2C)o1 [Compound 2.017]
POST Application SETFA, percentage damage (five point scale) (Setaria faberi (SETFA) [1]; 500 g/h): 5 (5=80-100%)
PRE Application ABUTH, percentage damage (five point scale) ([2]; 500 g/h): 5 (5=80-100%)
PRE Application ECHCG, percentage damage (five point scale) ([3]; 500 g/h): 5 (5=80-100%)
PRE Application IPOHE, percentage damage (five point scale) ([4]; 500 g/h): 5 (5=80-100%)
POST Application ECHCG, percentage damage (five point scale) ([5]; 500 g/h): 5 (5=80-100%)
POST Application ABUTH, percentage damage (five point scale) ([6]; 500 g/h): 4 (4=60-79%)
PRE Application AMARE, percentage damage (five point scale) ([7]; 500 g/h): 5 (5=80-100%)
POST Application IPOHE, percentage damage (five point scale) ([8]; 500 g/h): 4 (4=60-79%)
PRE Application SETFA, percentage damage (five point scale) (Setaria faberi (SETFA) [9]; 500 g/h): 4 (4=60-79%)
POST Application AMARE, percentage damage (five point scale) ([10]; 500 g/h): 5 (5=80-100%)

Cc1nnc(NC(=O)c2ccc(S(C)(=O)=O)c(N=CN(C)C)c2C)o1 [Compound 2.025]
POST Application SETFA, percentage damage (five point scale) (Setaria faberi (SETFA) [1]; 500 g/h): 5 (5=80-100%)
PRE Application ABUTH, percentage damage (five point scale) ([2]; 500 g/h): 5 (5=80-100%)
PRE Application ECHCG, percentage damage (five point scale) ([3]; 500 g/h): 5 (5=80-100%)
PRE Application IPOHE, percentage damage (five point scale) ([4]; 500 g/h): 3 (3=40-59%)
POST Application ECHCG, percentage damage (five point scale) ([5]; 500 g/h): 5 (5=80-100%)
POST Application ABUTH, percentage damage (five point scale) ([6]; 500 g/h): 5 (5=80-100%)
PRE Application AMARE, percentage damage (five point scale) ([7]; 500 g/h): 5 (5=80-100%)
POST Application IPOHE, percentage damage (five point scale) ([8]; 500 g/h): 5 (5=80-100%)
PRE Application SETFA, percentage damage (five point scale) (Setaria faberi (SETFA) [9]; 500 g/h): 5 (5=80-100%)
POST Application AMARE, percentage damage (five point scale) ([10]; 500 g/h): 5 (5=80-100%)

CCN(C)C=Nc1c(S(C)(=O)=O)ccc(C(=O)Nc2nnc(C)o2)c1C [Compound 2.027]
POST Application SETFA, percentage damage (five point scale) (Setaria faberi (SETFA) [1]; 500 g/h): 5 (5=80-100%)
PRE Application ABUTH, percentage damage (five point scale) ([2]; 500 g/h): 5 (5=80-100%)
PRE Application ECHCG, percentage damage (five point scale) ([3]; 500 g/h): 5 (5=80-100%)
PRE Application IPOHE, percentage damage (five point scale) ([4]; 500 g/h): 4 (4=60-79%)
POST Application ECHCG, percentage damage (five point scale) ([5]; 500 g/h): 5 (5=80-100%)
POST Application ABUTH, percentage damage (five point scale) ([6]; 500 g/h): 5 (5=80-100%)
PRE Application AMARE, percentage damage (five point scale) ([7]; 500 g/h): 5 (5=80-100%)
POST Application IPOHE, percentage damage (five point scale) ([8]; 500 g/h): 5 (5=80-100%)
PRE Application SETFA, percentage damage (five point scale) (Setaria faberi (SETFA) [9]; 500 g/h): 5 (5=80-100%)
POST Application AMARE, percentage damage (five point scale) ([10]; 500 g/h): 5 (5=80-100%)

CCN(C=Nc1c(S(C)(=O)=O)ccc(C(=O)Nc2nnc(C)o2)c1C)CC [Compound 2.031]
POST Application SETFA, percentage damage (five point scale) (Setaria faberi (SETFA) [1]; 500 g/h): 5 (5=80-100%)
PRE Application ABUTH, percentage damage (five point scale) ([2]; 500 g/h): 4 (4=60-79%)
PRE Application ECHCG, percentage damage (five point scale) ([3]; 500 g/h): 5 (5=80-100%)
PRE Application IPOHE, percentage damage (five point scale) ([4]; 500 g/h): 4 (4=60-79%)
POST Application ECHCG, percentage damage (five point scale) ([5]; 500 g/h): 5 (5=80-100%)
POST Application ABUTH, percentage damage (five point scale) ([6]; 500 g/h): 5 (5=80-100%)
PRE Application AMARE, percentage damage (five point scale) ([7]; 500 g/h): 5 (5=80-100%)
POST Application IPOHE, percentage damage (five point scale) ([8]; 500 g/h): 4 (4=60-79%)
PRE Application SETFA, percentage damage (five point scale) (Setaria faberi (SETFA) [9]; 500 g/h): 5 (5=80-100%)
POST Application AMARE, percentage damage (five point scale) ([10]; 500 g/h): 5 (5=80-100%)
